Data from patent US8957001B2, “Particles comprising a biopolymer which is degradable under the effect of an electromagnetic wave as emitted by a solar radiation” (BASF Beauty Care Solutions France SAS, priority 2002, dated 2015).

Experiment: Progressive release of an encapsulated active from liposomes under UV irradiation
Type: physicochemical
Description: All is done in a manner identical to what is presented in Example 15, but RNA of marine origin, which is commercially available, is used in amounts which are identical to those used in Example 15. All is done in a manner identical to what is presented in Example 15, but DNA of plant origin or RNA of plant origin, which are commercially available (Inocosm), are used in amounts which are identical to those used in Example 15. All is done in a manner identical to what is presented in Example 15, but oligonucleosides or oligonucleotides, which are prepared by chemical synthesis and which are available from companies which manufacture these nucleosides or these nucleotides to order, are used for preparing these particles, in proportions which are identical to those used in Example 15.

release under UV irradiation (encapsulated in plant DNA or plant RNA liposomes (Example 17), after 3 hours of irradiation) | release under UV irradiation (encapsulated in plant DNA or plant RNA liposomes (Example 17), after 6 hours of irradiation) | release under UV irradiation (encapsulated in marine RNA liposomes (Example 16), after 3 hours of irradiation) | release under UV irradiation (encapsulated in marine RNA liposomes (Example 16), after 6 hours of irradiation) | Compound
60% | 96% | – | – | CCCCC(CC)COC(=O)C=Cc1ccc(OC)cc1 (stereo not shown) [Parsol MCX]
– | – | 40% | 80% | tocopherol
